Data from patent US8198273B2, “Compounds and methods for kinase modulation, and indications therefor” (Plexxikon Inc., priority 2009, dated 2012).

How the values were obtained:
[1] = target: CYP2D6 (Homo sapiens, UniProt P10635); assay: CYP2D6 inhibition (fluorescent substrate); assay type: in vitro ADME; settings: CYP2D6, AMMC substrate; read-out: Cyp IC50 2D6
Protocol: CYP (Cytochrome P450) enzymes are the major drug metabolizing enzymes present in the liver. The inhibition of CYP enzyme activity (IC50) for each of CYP1A2, CYP2C19, CYP2C9, CYP2D6, CYP3A4(BFC) and CYP3A4(BQ) is determined for compounds, where inhibition of metabolism of a known substrate leads to a decrease in the fluorescence of the metabolized product. The fluorescence of the product is monitored as a function of compound concentration.
Compounds are dissolved in dimethyl sulfoxide to a concentration of 100 mM. These are diluted 1 μL into 82 μL of acetonitrile. […] These are then serially diluted 1:1 (160 μL to 160 μL co-factor mix) for a total of 10 points. A 10 μL aliquot of this final mixture is dispensed into 384 well assay plates and incubated for 10 minutes at 37° C. […] Assay plates are incubated at 37° C. […] The signal versus compound concentration is used to determine the IC50. The enzymes and substrates for this assay are obtained from BD Biosciences.

[2] = Relative solubility by turbidity in aqueous buffers of varying pH; assay type: physicochemical; settings: for turbidity threshold (L, M, H) 7.4: HEPES pH 7.4; for turbidity threshold (L, M, H) 4.5: SIF pH 4.5; for turbidity threshold (L, M, H) 6.8: SIF pH 6.8; for turbidity threshold (L, M, H) 1.4: buffer pH 1.4 (SGF)
Procedure, shortened: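 Turbidity endpoint: concentration where optical density at 490, 535 and 650 nm exceeds 0.01, three-wavelength average used. Buffers at pH 1.5, 4.5, 6.8 and 7.4; DMSO serial dilutions of 25 mM stock spiked 1 μL into 99 μL buffer. Low <31.3, moderate 31.3–250, high >250 μM.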

[3] = tested on: A375 melanoma cells (B-Raf V600E); assay: A375 cell growth inhibition (ATPlite); assay type: cell-based; settings: Homo sapiens, A-375, 72 h; A375, 3 days incubation
Procedure, shortened: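 ATPlite luminescence, taken as a cell-number measure, gave IC50 values after a 3-day 37° C, 5% CO2 incubation. Compounds were tested as 8-point threefold titrations, highest final concentration 10 μM, added to cells seeded the day before.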

Sequence of CYP2D6 (P10635 whole entry): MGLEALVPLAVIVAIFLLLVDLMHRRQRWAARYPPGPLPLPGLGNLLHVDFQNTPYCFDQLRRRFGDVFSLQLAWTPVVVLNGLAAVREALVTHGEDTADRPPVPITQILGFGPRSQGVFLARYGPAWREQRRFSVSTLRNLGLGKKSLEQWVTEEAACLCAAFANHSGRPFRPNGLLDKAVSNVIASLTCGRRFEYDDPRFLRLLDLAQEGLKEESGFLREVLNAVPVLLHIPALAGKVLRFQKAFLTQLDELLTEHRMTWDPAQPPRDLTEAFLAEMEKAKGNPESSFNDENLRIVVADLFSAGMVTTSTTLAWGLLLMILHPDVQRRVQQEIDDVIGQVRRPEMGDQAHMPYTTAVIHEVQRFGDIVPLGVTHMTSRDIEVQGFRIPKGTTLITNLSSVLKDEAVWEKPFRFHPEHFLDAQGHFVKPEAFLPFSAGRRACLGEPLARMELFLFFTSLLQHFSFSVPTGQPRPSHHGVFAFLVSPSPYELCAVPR

IC50 [1] [µM]	IC50 [3] [µM]	Compound	turbidity threshold (L, M, H) 7.4 [2]	turbidity threshold (L, M, H) 4.5 [2]	turbidity threshold (L, M, H) 6.8 [2]	turbidity threshold (L, M, H) 1.4 [2]
> 10	< 1	CCCS(=O)(=O)Nc1ccc(F)c(C(=O)c2c[nH]c3ncc(C#CCOC)cc23)c1F [P-2239, Propane-1-sulfonic acid {2,4-difluoro-3-[5-(3-methoxy-prop-1-ynyl)-1H-pyrrolo[2,3-b]pyridine-3-carbonyl]-phenyl}-amide]	M (moderate solubility if the threshold concentration is 31.3 μM to 250 μM)	M (moderate solubility if the threshold concentration is 31.3 μM to 250 μM)	L (low solubility if the threshold concentration is <31.3 04)	L (low solubility if the threshold concentration is <31.3 04)
> 10	< 0.1	CCCS(=O)(=O)Nc1ccc(F)c(C(=O)c2c[nH]c3ncc(-c4ccc(CCCOC)nc4)cc23)c1F [P-2226, Propane-1-sulfonic acid (2,4-difluoro-3-{5-[6-(3-methoxy-propyl)-pyridin-3-yl]-1H-pyrrolo[2,3-b]pyridine-3-carbonyl}-phenyl)-amide]	L (low solubility if the threshold concentration is <31.3 04)	L (low solubility if the threshold concentration is <31.3 04)	L (low solubility if the threshold concentration is <31.3 04)	H (high solubility if the threshold concentration is >250 μM)
> 10	< 5	O=C(c1c(F)ccc(NS(=O)(=O)c2cccc(F)c2)c1F)c1c[nH]c2nccc(Cl)c12 [P-2019, N-[3-(4-Chloro-1H-pyrrolo[2,3-b]pyridine-3-carbonyl)-2,4-difluoro-phenyl]-3-fluoro-benzenesulfonamide]	M (moderate solubility if the threshold concentration is 31.3 μM to 250 μM)	M (moderate solubility if the threshold concentration is 31.3 μM to 250 μM)	M (moderate solubility if the threshold concentration is 31.3 μM to 250 μM)	L (low solubility if the threshold concentration is <31.3 04)
> 10	< 1	CCCS(=O)(=O)Nc1ccc(F)c(C(=O)c2c[nH]c3ncc(-c4ccc(C)nc4)cc23)c1F [P-2213, Propane-1-sulfonic acid {2,4-difluoro-3-[5-(6-methyl-pyridin-3-yl)-1H-pyrrolo[2,3-b]pyridine-3-carbonyl]-phenyl}-amide]	L (low solubility if the threshold concentration is <31.3 04)	M (moderate solubility if the threshold concentration is 31.3 μM to 250 μM)	L (low solubility if the threshold concentration is <31.3 04)	H (high solubility if the threshold concentration is >250 μM)
> 10	< 5	N#Cc1cnc2[nH]cc(C(=O)c3cccc(NS(=O)(=O)c4ccccc4)c3F)c2c1 [P-2056, N-[3-(5-Cyano-1H-pyrrolo[2,3-b]pyridine-3-carbonyl)-2-fluoro-phenyl]-benzenesulfonamide]	M (moderate solubility if the threshold concentration is 31.3 μM to 250 μM)	L (low solubility if the threshold concentration is <31.3 04)	M (moderate solubility if the threshold concentration is 31.3 μM to 250 μM)	L (low solubility if the threshold concentration is <31.3 04)
> 10	< 5	N#Cc1ccnc2[nH]cc(C(=O)c3c(F)ccc(NS(=O)(=O)c4ccccc4F)c3F)c12 [P-2020, N-[3-(4-Cyano-1H-pyrrolo[2,3-b]pyridine-3-carbonyl)-2,4-difluoro-phenyl]-2-fluoro-benzenesulfonamide]	M (moderate solubility if the threshold concentration is 31.3 μM to 250 μM)	M (moderate solubility if the threshold concentration is 31.3 μM to 250 μM)	M (moderate solubility if the threshold concentration is 31.3 μM to 250 μM)	M (moderate solubility if the threshold concentration is 31.3 μM to 250 μM)
> 10	< 1	O=C(c1c(F)ccc(NS(=O)(=O)c2cc(F)ccc2F)c1F)c1c[nH]c2nccc(Cl)c12 [P-2018, N-[3-(4-Chloro-1H-pyrrolo[2,3-b]pyridine-3-carbonyl)-2,4-difluoro-phenyl]-2,5-difluoro-benzenesulfonamide]	M (moderate solubility if the threshold concentration is 31.3 μM to 250 μM)	M (moderate solubility if the threshold concentration is 31.3 μM to 250 μM)	M (moderate solubility if the threshold concentration is 31.3 μM to 250 μM)	L (low solubility if the threshold concentration is <31.3 04)
> 10	< 1	CCCS(=O)(=O)Nc1ccc(F)c(C(=O)c2c[nH]c3ncc(-c4cncnc4)cc23)c1F [P-2162, Propane-1-sulfonic acid [2,4-difluoro-3-(5-pyrimidin-5-yl-1H-pyrrolo[2,3-b]pyridine-3-carbonyl)-phenyl]-amide]	M (moderate solubility if the threshold concentration is 31.3 μM to 250 μM)	M (moderate solubility if the threshold concentration is 31.3 μM to 250 μM)	M (moderate solubility if the threshold concentration is 31.3 μM to 250 μM)	M (moderate solubility if the threshold concentration is 31.3 μM to 250 μM)
5 to 10	< 0.1	CCCS(=O)(=O)Nc1ccc(F)c(C(=O)c2c[nH]c3ncc(-c4ccc(C#CCN(CC)CC)nc4)cc23)c1F [P-2222, Propane-1-sulfonic acid (3-{5-[6-(3-diethylamino-prop-1-ynyl)-pyridin-3-yl]-1H-pyrrolo[2,3-b]pyridine-3-carbonyl}-2,4-difluoro-phenyl)-amide]	L (low solubility if the threshold concentration is <31.3 04)	L (low solubility if the threshold concentration is <31.3 04)	L (low solubility if the threshold concentration is <31.3 04)	L (low solubility if the threshold concentration is <31.3 04)
> 10	< 1	CCCS(=O)(=O)Nc1ccc(F)c(C(=O)c2c[nH]c3ncc(-c4ccc(OC)nc4OC)cc23)c1F [P-2184, Propane-1-sulfonic acid {3-[5-(2,6-dimethoxy-pyridin-3-yl)-1H-pyrrolo[2,3-b]pyridine-3-carbonyl]-2,4-difluoro-phenyl}-amide]	L (low solubility if the threshold concentration is <31.3 04)	L (low solubility if the threshold concentration is <31.3 04)	L (low solubility if the threshold concentration is <31.3 04)	L (low solubility if the threshold concentration is <31.3 04)
> 10	< 0.1	CCCS(=O)(=O)Nc1ccc(F)c(C(=O)c2c[nH]c3ncc(-c4ccc(OCCCN(C)C)nc4)cc23)c1F [P-2178, Propane-1-sulfonic acid (3-{5-[6-(3-dimethylamino-propoxy)-pyridin-3-yl]-1H-pyrrolo[2,3-b]pyridine-3-carbonyl}-2,4-difluoro-phenyl)-amide]	L (low solubility if the threshold concentration is <31.3 04)	M (moderate solubility if the threshold concentration is 31.3 μM to 250 μM)	L (low solubility if the threshold concentration is <31.3 04)	H (high solubility if the threshold concentration is >250 μM)
> 10	< 1	CCCS(=O)(=O)Nc1ccc(F)c(C(=O)c2c[nH]c3ncc(-c4ccnc(F)c4)cc23)c1F [P-2192, Propane-1-sulfonic acid {2,4-difluoro-3-[5-(2-fluoro-pyridin-4-yl)-1H-pyrrolo[2,3-b]pyridine-3-carbonyl]-phenyl}-amide]	L (low solubility if the threshold concentration is <31.3 04)	L (low solubility if the threshold concentration is <31.3 04)	L (low solubility if the threshold concentration is <31.3 04)	L (low solubility if the threshold concentration is <31.3 04)
